These results are taken from patent US10213429B2, “Imidazo-pyrazinyl derivatives useful as soluble guanylate cyclase activators” (Merck Sharp & Dohme Corp., priority 2015, dated 2019).

Structures are written as SMILES.

One assay deals with T1, sGC α1/β1 heterodimer (Homo sapiens, UniProt Q02108+Q02153).
T1 construct: expressed in transfected cells; host or cells: CHO-K1 (clone #7, CHO-K1/sGC)
T1 sequence (Q02108 1-690): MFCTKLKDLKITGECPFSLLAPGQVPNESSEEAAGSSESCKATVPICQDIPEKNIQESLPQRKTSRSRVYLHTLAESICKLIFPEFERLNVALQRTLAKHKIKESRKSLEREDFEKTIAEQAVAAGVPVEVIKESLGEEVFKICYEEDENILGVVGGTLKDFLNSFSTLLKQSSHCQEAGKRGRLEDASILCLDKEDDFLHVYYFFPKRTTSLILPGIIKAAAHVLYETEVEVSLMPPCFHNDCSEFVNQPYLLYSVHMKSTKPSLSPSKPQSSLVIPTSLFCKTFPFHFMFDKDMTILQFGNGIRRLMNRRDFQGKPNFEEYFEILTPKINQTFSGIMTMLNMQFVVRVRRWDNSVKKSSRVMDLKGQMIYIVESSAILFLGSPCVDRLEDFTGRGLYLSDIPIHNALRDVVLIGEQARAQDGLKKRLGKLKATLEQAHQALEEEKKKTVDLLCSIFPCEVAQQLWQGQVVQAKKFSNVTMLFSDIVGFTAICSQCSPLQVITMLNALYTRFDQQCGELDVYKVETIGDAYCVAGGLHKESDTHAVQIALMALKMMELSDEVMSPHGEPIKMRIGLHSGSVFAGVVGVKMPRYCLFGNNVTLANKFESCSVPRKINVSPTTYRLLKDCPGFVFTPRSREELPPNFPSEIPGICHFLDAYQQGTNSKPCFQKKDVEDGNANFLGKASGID
T1 sequence (Q02153 1-619): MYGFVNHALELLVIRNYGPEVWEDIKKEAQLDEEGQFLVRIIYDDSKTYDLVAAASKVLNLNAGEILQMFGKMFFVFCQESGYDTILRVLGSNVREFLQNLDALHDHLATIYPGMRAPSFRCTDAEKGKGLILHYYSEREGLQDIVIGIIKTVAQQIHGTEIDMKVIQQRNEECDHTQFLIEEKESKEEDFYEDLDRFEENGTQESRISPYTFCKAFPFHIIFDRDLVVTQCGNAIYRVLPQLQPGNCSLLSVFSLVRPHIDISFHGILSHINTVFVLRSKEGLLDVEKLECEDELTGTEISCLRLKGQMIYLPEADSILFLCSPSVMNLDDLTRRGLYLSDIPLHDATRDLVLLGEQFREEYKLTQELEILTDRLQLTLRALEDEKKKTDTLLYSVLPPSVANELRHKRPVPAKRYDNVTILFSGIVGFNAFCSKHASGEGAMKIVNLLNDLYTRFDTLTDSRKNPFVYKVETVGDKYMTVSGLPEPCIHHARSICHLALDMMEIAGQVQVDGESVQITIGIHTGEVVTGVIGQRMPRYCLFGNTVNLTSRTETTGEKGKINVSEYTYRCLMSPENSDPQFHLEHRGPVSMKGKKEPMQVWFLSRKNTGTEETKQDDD
Put plainly: Cell-Based sGC Functional Assay (CASA Assay), cGMP by HTRF in CHO-K1/sGC cells. The following applies: for Emax: CHO-K1, percent activation relative to maximum cGMP production of Compound A (= 100%), read-out: % Act.; for EC50: cGMP production, 1 hr at 37° C., 4P fit, presence or absence of 1 μM DETA-NO not given, read-out: IP (nM) (inflection point). In outline: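 CHO-K1 cells stably expressing human sGC α1/β1, in EBSS buffer with 5 mM MgCl2, 10 mM HEPES, 0.05% BSA and 0.5 mM IBMX, incubated with compound (2.5% DMSO) ± 1 μM DETA-NO, 1 h, 37 °C. Intracellular cGMP read by HTRF; activity as % of reference activator maximum, IP from 4-parameter fit.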
(In general: In TR-FRET formats the signal depends on donor and acceptor labels being close together.)

In assay [1] the test system is Spontaneously hypertensive rats (SHR). Put plainly: Acute Efficacy in Spontaneously Hypertensive Rats (SHR), telemetry blood pressure. The format is in vivo, rat. The following applies: SHR male. In outline:
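Male SHR with aortic telemetry, conscious and freely moving, recovered 14 days post-surgery. Single oral gavage; vehicle 10% transcutol/20% Cremophor/70% water dosed the day before as baseline. Hourly blood pressure averages minus baseline; maximum peak systolic decrease reported at a stated oral dose (mpk).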

With `CC1(c2ccc(F)cn2)C(=O)Nc2nc(-c3cn4ccnc4c(CCCC(F)(F)F)n3)nc(O)c21` (stereo not drawn) [Example 32B, 5-(5-fluoropyridin-2-yl)-4-hydroxy-5-methyl-2-(8-(4,4,4-trifluorobutyl)imidazo[1,2-a]pyrazin-6-yl)-5H-pyrrolo[2,3-d]pyrimidin-6(7H)-one], on sGC α1/β1 heterodimer, the Emax amounted to 115% and the EC50 amounted to 880 nM. The “Cat. (maximum peak decrease of systolic blood pressure (SBP) in SHR)” value in assay [1] (single oral dose 1.0 mpk P.O.) was “B (Category B=SBP in SHRs 20-40 mmHg)”.
Consider `CC1(c2ccc(F)c(F)c2)C(=O)Nc2nc(-c3cn4ccnc4c(CCC(F)(F)F)n3)ncc21` (stereo not drawn) [Example 37B, 5-(3,4-difluorophenyl)-5-methyl-2-(8-(3,3,3-trifluoropropyl)imidazo[1,2-a]pyrazin-6-yl)-5H-pyrrolo[2,3-d]pyrimidin-6(7H)-one], for which, on sGC α1/β1 heterodimer, the Emax worked out at 125% and the EC50 was 800 nM. In addition, the “Cat. (maximum peak decrease of systolic blood pressure (SBP) in SHR)” value in assay [1] (single oral dose 3.0 mpk P.O.) was “B (Category B=SBP in SHRs 20-40 mmHg)”.
With `CC1(c2ccc(Cl)cn2)C(=O)Nc2nc(-c3cn4ccnc4c(CCC(F)(F)C(F)(F)F)n3)nc(O)c21` (stereo not drawn) [Example 17A, 5-(5-chloropyridin-2-yl)-4-hydroxy-5-methyl-2-(8-(3,3,4,4,4-pentafluorobutyl)imidazo[1,2-a]pyrazin-6-yl)-5H-pyrrolo[2,3-d]pyrimidin-6(7H)-one], on sGC α1/β1 heterodimer, the Emax turned out to be 90% and the EC50 was 294 nM. For the same compound, in assay [1] (single oral dose 1.0 mpk P.O.), the “Cat. (maximum peak decrease of systolic blood pressure (SBP) in SHR)” value is “A (Category A=SBP in SHRs<20 mmHg)”.
In the case of `CC1(c2ccc(F)cc2)C(=O)Nc2nc(-c3cn4ccnc4c(CCC(F)(F)C(F)(F)F)n3)nc(O)c21` (stereo not drawn) [Example 2A, 5-(4-Fluorophenyl)-4-hydroxy-5-methyl-2-(8-(3,3,4,4,4-pentafluorobutyl)imidazo[1,2-a]pyrazin-6-yl)-5H-pyrrolo[2,3-d]pyrimidin-6(7H)-one], at sGC α1/β1 heterodimer, the Emax stood at 102% and the EC50 stood at 433 nM. Further, the “Cat. (maximum peak decrease of systolic blood pressure (SBP) in SHR)” value in assay [1] (single oral dose 3.0 mpk P.O.) is “B (Category B=SBP in SHRs 20-40 mmHg)”.
For `O=C1Nc2nc(-c3cn4ccnc4c(CCCC(F)(F)F)n3)ncc2C1(c1ccc(F)cn1)C1CC1` (stereo not drawn) [Example 54A, 5-cyclopropyl-5-(5-fluoropyridin-2-yl)-2-(8-(4,4,4-trifluorobutyl)imidazo[1,2-a]pyrazin-6-yl)-5H-pyrrolo[2,3-d]pyrimidin-6(7H)-one], at sGC α1/β1 heterodimer, the Emax was 137% and the EC50 was 21 nM. In assay [1] (single oral dose 1.0 mpk P.O.), the “Cat. (maximum peak decrease of systolic blood pressure (SBP) in SHR)” value is “A (Category A=SBP in SHRs<20 mmHg)”.
As to `Cc1cn2cc(-c3ncc4c(n3)NC(=O)C4(C)c3ccc(F)cn3)nc(CCCC(F)(F)F)c2n1` (stereo not drawn) [Example 90B, 5-(5-Fluoropyridin-2-yl)-5-methyl-2-(2-methyl-8-(4,4,4-trifluorobutyl)imidazo[1,2-a]pyrazin-6-yl)-5H-pyrrolo[2,3-d]pyrimidin-6(7H)-one], at sGC α1/β1 heterodimer, the Emax was 191% and the EC50 turned out to be 589 nM. Besides, the “Cat. (maximum peak decrease of systolic blood pressure (SBP) in SHR)” value in assay [1] (single oral dose 0.3 mpk P.O.) was “B (Category B=SBP in SHRs 20-40 mmHg)”.
With `O=C1Nc2nc(-c3cn4ccnc4c(CCCC(F)(F)F)n3)nc(O)c2C1(c1ccc(F)cc1)C1CC1` (stereo not drawn) [Example 35B, 5-cyclopropyl-5-(4-fluorophenyl)-4-hydroxy-2-(8-(4,4,4-trifluorobutyl)imidazo[1,2-a]pyrazin-6-yl)-5H-pyrrolo[2,3-d]pyrimidin-6(7H)-one], at sGC α1/β1 heterodimer, the Emax was found to be 148% and the EC50 is 190 nM. Besides, in assay [1] (single oral dose 3.0 mpk P.O.), the “Cat. (maximum peak decrease of systolic blood pressure (SBP) in SHR)” value was “A (Category A=SBP in SHRs<20 mmHg)”.
With `CC1(c2ccc(F)cn2)C(=O)Nc2nc(-c3cn4ccnc4c(Cc4ccc(F)cc4)n3)nc(O)c21` (stereo not drawn) [Example 6B, 2-(8-(4-fluorobenzyl)imidazo[1,2-a]pyrazin-6-yl)-5-(5-fluoropyridin-2-yl)-4-hydroxy-5-methyl-5H-pyrrolo[2,3-d]pyrimidin-6(7H)-one], at sGC α1/β1 heterodimer, the Emax came out at 118% and the EC50 amounted to 253 nM. In addition, in assay [1] (single oral dose 1.0 mpk P.O.), the “Cat. (maximum peak decrease of systolic blood pressure (SBP) in SHR)” value is “C (Category C=SBP in SHRs>40 mmHg)”.
